Laboratory results reported in article PMC6443933, “Antagonizing Retinoic Acid-Related-Orphan Receptor Gamma Activity Blocks the T Helper 17/Interleukin-17 Pathway Leading to Attenuated Pro-inflammatory Human Keratinocyte and Skin Responses” (Frontiers in Immunology, 2019).

Test system: CD4+ CD25 high gated PBMCs
Experiment: FoxP3 expression in CD4+ CD25 high T-cells under Treg inducing conditions
Assay type: cell-based, human
Conditions: 96 h Treg inducing conditions, vs DMSO
Experimental: PBMCs from freshly drawn heparinized blood originating from healthy volunteers were isolated by density gradient centrifugation using Ficoll Paque (GE). PBMCs (1 × 10^5/well) were incubated for 96 h in the presence of DMSO or Cpd A (1 μM) together with anti-CD3 (3 ng/ml, clone OKT-3, BioXcell), anti-CD28 (30 ng/ml, clone CD28.2, BioLegend), TGF-β1 (0.2 ng/ml, Biolegend), IL-2 (15 ng/ml, Biolegend), anti-IFN-γ antibody (5 μg/ml, Biolegend), and anti-IL-4 (5 μg/ml, Biolegend). Cells were prepared for CD4/CD25 surface staining, followed by intracellular FoxP3 staining.
For FoxP3 detection within the CD4^+ CD25 high T-cells, surface staining was performed for 20 min with FITC labeled CD4 antibody and anti-CD25 BV421 antibody (BD Bioscience). After surface staining, the cells were washed, fixed and permeabilized according to the manufacturer's instructions (eBioscience) prior to intracellular staining with APC labeled FoxP3 antibody (eBioscience). Data were acquired on a LSR Fortessa (BD Bioscience) and analyzed using FlowJo software (Tree Star). FoxP3 expression was determined in gated CD4^+ CD25 high T-cells that were treated with DMSO or with Cpd A.

Q: How did the FoxP3 expression turn out when `Cc1ccc(C(=O)Nc2cn3ccnc3c(CN3CCN(c4noc(C(C)(C)C)n4)[C@@H](C)C3)c2C)cn1` [Cpd A, (S)-N-(8-((4-(5-(tert-butyl)-1,2,4-oxadiazol-3-yl)-3-methylpiperazin-1-yl)methyl)-7-methylimidazo[1,2-a]pyridin-6-yl)-6-methylnicotinamide] was run?
A: did not result in altered FoxP3 expression
